Like-named read-outs stand apart in the source and are kept apart here.

Assay [1] has as its target T1, ghrelin receptor (HEK-GHSR1 stable cells) (Homo sapiens, UniProt Q92847).
T1 construct: expressed in transfected cells
The assay can be described thus: Ghrelin receptor inverse agonist assay (HTRF IP-one), Method B4. It is filed as cell-based. As to conditions: inverse agonist at the ghrelin receptor, Method B4. From the text: B4. Ghrelin Receptor Inverse Agonist Assay […]
In addition, the following method can be utilized to assay for inverse agonist activity. (Thomsen, W.; et al. Curr. Opin. Biotechnol. 2005, 16, 655-665; Tozawa-Takahashi F; et al., 11th SBS Annual Conference. September 2005, Geneva; Trinquet, E.; Fink, M.; Bazin, H.; et al. Anal. Biochem. 2006, 358, 126-135; Bergsdorf, C.; Kropp-Goerkis, C.; Kaehler, I.; Ketscher, L.; Boerner, U.; Parczyk, K.; Bader, B. Assay Drug Dev. Technol. 2008, 6, 39-53.)
• 1. Remove culture medium from the plate by inversion. • 2. Add 70 μl of compound/well. • 3. Incubate 30 min at 37° C. • 4. Stop the reaction by adding 15 μl of lysis buffer/well. • 5. Add 15 μl of d2/well. • 6. Add 15 μl of Anti-IP1 cryptate/well. • 7. Incubate 1 h at room temp on an orbital shaker at 100 RPM. • 8. Read the fluorescence in a plate reader (Tecan GeniosPro or similar)
The above sequence was performed using the HTRF IP-one kit (CisBio cat#62P1APEC). For the simultaneous assay of multiple test compounds, 96-well plates can be utilized in this assay (white plate with flat-bottom well, Falcon #353296). These were seeded overnight with 100 000 of HEK-GHSR1 stable cells/well. • Wells A1 and A2 of each plate are used as negative control (wells without d2). Compounds are typically tested in replicate at the following concentrations:
Compounds are stored at 10 mM in 100% DMSO.
1st dilution 1/10 in 100% DMSO (1 mM final concentration).
2nd dilution 1/10 in H2O (0.1 mM final concentration).
Other dilutions are performed in a 96-well plate in stimulation buffer.
The results for representative compounds of the invention are provided in the Examples.

Assay [2] concerns the target T2, human ghrelin receptor (GRLN, growth hormone secretagogue receptor, hGHS-R1a) (Homo sapiens, UniProt Q92847).
T2 construct: purchased PerkinElmer BioSignal #RBHGHSM, lot#1887; host or cells: HEK-293 cells, stably transfected (membranes)
Kind of assay: Competitive radioligand binding assay (ghrelin receptor), Method B1. The protocol:
Multiscreen Harvest plates-GF/C (Millipore, #MAHFC1H60) • 4. […] Bottom seal (Millipore, #MATAH0P00) • 7. […] Binding Buffer: 25 mM Hepes (pH 7.4), 1 mM CaCl2, 5 mM MgCl2. 2.5 mM EDTA, 0.4% BSA
Competition experiments were performed in a 300 μl filtration assay format. • 1. 220 μL of membranes diluted in binding buffer • 2. 40 μL of compound diluted in binding buffer • 3.
Compounds were provided frozen on dry ice at a stock concentration of 10 mM diluted in 100% DMSO and stored at −80° C. until the day of testing. On the test day, compounds were allowed to thaw at rt overnight and then diluted in assay buffer according to the desired test concentrations. Under these conditions, the maximal final DMSO concentration in the assay was 0.1%.
Plates were sealed with TopSeal-A, vortexed gently and incubated at rt for 30 min. The reaction was arrested by filtering samples through Multiscreen Harvest plates (pre-soaked in 0.5% polyethyleneimine) using a Tomtec Harvester, washed 9 times with 500 μL of cold 50 mM Tris-HCl (pH 7.4, 4° C.), and then plates were air-dried in a fumehood for 30 min. A bottom seal was applied to the plates prior to the addition of 25 μL of MicroScint-0 to each well. Plates were than sealed with TopSeal-A and counted for 30 sec per well on a TopCount Microplate Scintillation and Luminescence Counter (PerkinElmer) using a count delay of 60 sec. Results were expressed as counts per minute (cpm).
Data were analyzed by GraphPad Prism (GraphPad Software, San Diego, Calif.) using a variable slope non-linear regression analysis. […] Dmax values were calculated using the following formula: […]

Assay [3] concerns the target T3, GHS-R1a receptor (HEK293 cells expressing GHS-R1a receptor) (Homo sapiens, UniProt Q92847).
T3 construct: host or cells: HEK293
The assay can be described thus: Fluorescence functional assay (ghrelin receptor), Method B2, agonist and antagonist mode. It is filed as cell-based. Particulars: functional activity as an antagonist at the ghrelin receptor, Methods B2 and B3. The protocol: • 1. ImageTrak Epi-Fluorescence system (Perkin-Elmer) • 2. MultiDrop TiterTek • 3. CO2 incubators: 5% CO2, humidified, 37° C.
• 1. Hanks' BSS without phenol red (Life Technologies) • 2. Hepes buffer • 3. Probenecid (Sigma) • 4. […] Falcon cell culture 96-well black/clear bottom plates • 6. 0.05% trypsin-EDTA • 7. Cells: HEK293 cells expressing GHS-R1a receptor (Perkin-Elmer BioSignal) were grown in DMEM (Dulbecco's Modified Eagles Medium) with 10% FBS, 1% sodium pyruvate, 1% NEAA and 400 μg/mL geneticin • 8. […] [D-Lys^3]-GHRP-6 (reference antagonist, Phoenix #031-22) • 10. Assay buffer: HBSS-20 mM Hepes containing 2.5 mM probenecid and 0.1% BSA (bovine serum albumin); pH 7.4
Stock solutions of compounds (10 mM in 100% DMSO) were provided frozen on dry ice and stored at −80° C. prior to use. […] Assay plates were then prepared by appropriate dilution in assay buffer.
Typical Final Test Concentrations (N=10) for Test Compounds (agonist):
Typical Final Test Concentrations (N=10) for Test Compounds (antagonist):
Cells were maintained in culture as indicated above. The cells were harvested at a confluency of 70-90% the day before the experiment. Growth medium was removed and the cells rinsed briefly with PBS without Ca^+2 and Mg^+2. 0.05% Trypsin was added and the plates incubated at 37° C. for 5 min to detach the cells. DMEM medium supplemented with 10% FBS was added to inactivate the trypsin and determine the cell concentration. The inoculum was adjusted to a final concentration of 200 cells/μL and dispensed at 200 μL per well into a 96-well block plate. The plates were, incubated at 37° C. overnight.
The plates were removed from the incubator and the media removed by inversion of the plates. Calcium-3 dye, 50 μL, was loaded and then incubated for 1 h at 37° C. The plate was again inverted and then 25 μL of assay buffer added. The plates were then transferred to the ImageTrak system for analysis. For agonist testing, after reading for ten (10) sec, 25 μL of 2× test compound or control was injected into the assay plate. Fluorescence was monitored for an additional 50 sec. A reading was taken every two (2) seconds for a total of 30 readings per assay point.
For antagonist testing, after reading for ten (10) sec, 12.5 μL of 3× test compound or control was injected into the assay plate and allowed to react for three (3) min.
Concentration response curves were analyzed using GraphPad Prism (GraphPad Software, San Diego, Calif.) by non-linear regression analysis (sigmoidal dose-response). EC50 values are calculated using GraphPad.
Emax values were calculated using the following formula: […]
Concentration response curves were analyzed using GraphPad Prism (GraphPad Software, San Diego, Calif.) by non-linear regression analysis (sigmoidal dose-response). IC50 values are calculated using GraphPad.
Imax values were calculated using the following formula: […]

The mark [4] stands for this setting: Ghrelin receptor binding activity, Method B1.

T2 sequence (Q92847 whole entry): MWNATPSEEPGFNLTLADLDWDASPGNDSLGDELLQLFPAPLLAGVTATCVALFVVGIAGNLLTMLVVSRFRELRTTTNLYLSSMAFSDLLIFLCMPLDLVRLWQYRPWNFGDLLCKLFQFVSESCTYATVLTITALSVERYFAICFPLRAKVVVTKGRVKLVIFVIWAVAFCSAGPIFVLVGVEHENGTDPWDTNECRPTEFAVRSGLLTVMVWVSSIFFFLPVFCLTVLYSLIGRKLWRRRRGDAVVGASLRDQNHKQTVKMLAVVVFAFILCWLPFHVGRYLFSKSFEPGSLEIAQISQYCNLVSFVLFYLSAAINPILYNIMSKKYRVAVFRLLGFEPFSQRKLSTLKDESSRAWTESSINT
T3 sequence (Q92847 whole entry): as above
T1 sequence (Q92847 whole entry): as above

A word on the IC50: it is the concentration that inhibits the measured activity by half. Lower therefore signals greater potency. As a reminder, the Ki is a measure of affinity in units of concentration, obtained from inhibition or displacement. A low value points to a stronger hold on the target. With `CCC(C)C1NCCOc2ccccc2CC(C)CNC(=O)C(Cc2ccccc2)NC(=O)C(C(C)O)N(C)C1=O` (mixture of isomers) [Compound 1338], the IC50 in assay [1] was 100 to 500 nM; in assay [2] (setting [4]), 10 to 100 nM. Also, the Ki in assay [2] (setting [4]) was 10 to 100 nM.
With `CCC(C)[C@@H]1NCCOc2ccccc2CC[C@H](C)NC(=O)[C@@H](Cc2ccccc2)NC(=O)[C@H](C(C)O)N(C)C1=O` (stereo partly drawn) [Compound 1302], the “Antagonist Activity” value in assay [3] is listed as “C (C = 10-100 nM)”. In assay [2] (setting [4]), this compound returned an IC50 of 10 to 100 nM and a Ki of 1 to 10 nM.
As for `CC(O)[C@H]1C(=O)N[C@H](Cc2ccccc2)C(=O)NC/C=C/c2ccccc2OCCN[C@@H](C2CCCCC2)C(=O)N1C` (stereo partly drawn) [Compound 1304], the “Antagonist Activity” value in assay [3] was “C (C = 10-100 nM)”. In assay [2] (setting [4]), this compound gave a Ki of 10 to 100 nM.
In the case of `CCC(C)[C@@H]1NCCOc2ccccc2/C=C/[C@H](C)NC(=O)[C@@H](Cc2ccccc2)NC(=O)[C@H](C(C)O)N(C)C1=O` (stereo partly drawn) [Compound 1316], the “Antagonist Activity” value in assay [3] is reported as “D (D = 100-500 nM)”. In assay [2] (setting [4]), this compound had an IC50 of 10 to 100 nM and a Ki of 10 to 100 nM.
As to `CC(O)[C@H]1C(=O)N[C@H](Cc2ccccc2)C(=O)N[C@@H](C)/C=C/c2ccccc2OCCN[C@@H](C2CC2)C(=O)N1C` (stereo partly drawn) [Compound 1317], the “Antagonist Activity” value in assay [3] is “C (C = 10-100 nM)”. In assay [2] (setting [4]), the IC50 was in the range of 10 to 100 nM and the Ki was in the range of 1 to 10 nM.
The corresponding values for `CCC(C)[C@@H]1NCCOc2ccccc2/C=C/CNC(=O)[C@@H](Cc2cccs2)NC(=O)[C@H](C(C)O)N(C)C1=O` (stereo partly drawn) [Compound 1332] are “D (D = 100-500 nM)”, 100 to 500 nM and 10 to 100 nM.
Regarding `CCC(C)[C@@H]1NCCOc2cc(F)ccc2CCCNC(=O)[C@@H](Cc2ccccc2)NC(=O)[C@H](C(C)O)N(C)C1=O` (stereo partly drawn) [Compound 1343], in assay [3], the “Antagonist Activity” value is “C (C = 10-100 nM)”. The same compound registered a Ki in assay [2] of 1 to 10 nM.
For the compound `CC1CCc2ccccc2OCCNC(C(C)C)C(=O)N(C)C(C(C)O)C(=O)NC(Cc2ccccc2O)C(=O)N1` (stereo not drawn) [Compound 1401], the “Antagonist Activity” value in assay [3] was “B (B = 1-10 nM)”.
The same measure, in the same setting: to `CC(C)[C@@H]1NCCOc2ccccc2CC[C@@H](C(F)(F)F)NC(=O)[C@@H](Cc2ccccc2)NC(=O)[C@H](C(C)O)N(C)C1=O` (stereo partly drawn) [Compound 1402] belongs “B (B = 1-10 nM)”; to `CC(C)[C@@H]1NCCOc2ccccc2CC[C@@H](C)NC(=O)[C@@H]([C@H](C)c2ccccc2)NC(=O)[C@H](C(C)O)N(C)C1=O` (stereo partly drawn) [Compound 1404], “B (B = 1-10 nM)”.
Regarding `CC1CCc2ccccc2OCCNC(C(C)C)C(=O)N(C)C(C(C)O)C(=O)NC(Cc2c[nH]c3ncccc23)C(=O)N1` (stereo not drawn) [Compound 1408], the IC50 in assay [1] was in the range of 10 to 50 nM.
In the case of `CC(C)[C@@H]1NCCOc2ccccc2CC[C@@H](C)NC(=O)[C@@H](Cc2cc(F)c(F)c(F)c2)NC(=O)[C@H](C(C)O)N(C)C1=O` (stereo partly drawn) [Compound 1411], the “Antagonist Activity” value in assay [3] is on record as “B (B = 1-10 nM)”.
The same measure, in the same setting: to `CC(C)[C@@H]1NCCOc2ccccc2CC[C@@H](C)NC(=O)[C@@H](Cc2csc3ccccc23)NC(=O)[C@H](C(C)O)N(C)C1=O` (stereo partly drawn) [Compound 1416] belongs “A (A <1 nM)”; to `CC(C)[C@@H]1NCCOc2ccc(F)cc2CC[C@@H](C)NC(=O)[C@@H](Cc2ccc(F)cc2)NC(=O)[C@H](C(C)O)N(C)C1=O` (stereo partly drawn) [Compound 1436], “B (B = 1-10 nM)”; to `CC(O)[C@H]1C(=O)N[C@H](Cc2c[nH]c3ccccc23)C(=O)N[C@H](C)CCc2cc(F)ccc2OCCN[C@@H](C2CC2)C(=O)N1C` (stereo partly drawn) [Compound 1442], “C (C = 10-100 nM)”.
For the compound `COc1cccc(C[C@H]2NC(=O)[C@H](C(C)O)N(C)C(=O)[C@H](C(C)C)NCCOc3cccc(F)c3CC[C@@H](C)NC2=O)c1` (stereo partly drawn) [Compound 1446], the “Antagonist Activity” value in assay [3] is reported as “B (B = 1-10 nM)”.
For the compound `CC(C)[C@@H]1NCCOc2cc(F)ccc2CC[C@@H](C)NC(=O)[C@@H](Cc2c[nH]c3ccccc23)NC(=O)[C@H](C(C)O)N(C)C1=O` (stereo partly drawn) [Compound 1455], the “Antagonist Activity” value in assay [3] was “B (B = 1-10 nM)”.
Same read-out and setting: to `CC(C)[C@@H]1NCCOc2cc(F)ccc2CCCNC(=O)[C@@H](Cc2cccc(Cl)c2)NC(=O)[C@H](C(C)O)N(C)C1=O` (stereo partly drawn) [Compound 1460] belongs “B (B = 1-10 nM)”; to `CC(C)[C@@H]1NCCOc2cc(F)ccc2CC[C@@H](C)NC(=O)[C@@H](Cc2ccc(F)cc2)NC(=O)[C@H](C(C)O)N(C)C1=O` (stereo partly drawn) [Compound 1464], “B (B = 1-10 nM)”.
On to `CC(O)[C@H]1C(=O)N[C@H](Cc2ccc(Cl)cc2)C(=O)NC/C=C/c2ccccc2OCCN[C@@H](C2CCCCC2)C(=O)N1C` (stereo partly drawn) [Compound 1710], for which the IC50 was in the range of 100 to 500 nM in assay [1] and 10 to 100 nM in assay [2] (setting [4]).
Take `CC(O)[C@H]1C(=O)N[C@H](Cc2ccc(F)cc2)C(=O)N[C@H](C)CCc2ccccc2OCCN[C@@H](C2CCCCC2)C(=O)N1C` (stereo partly drawn) [Compound 1743]: the IC50 was in the range of 100 to 500 nM in assay [1] and 10 to 100 nM in assay [2] (setting [4]).
The corresponding values for `CC(O)[C@H]1C(=O)N[C@H](Cc2ccc(Cl)cc2)C(=O)NC/C=C/c2ccccc2OCCN[C@@H](C(C)(C)C)C(=O)N1C` (stereo partly drawn) [Compound 1768] are 10 to 50 nM and 10 to 100 nM.
Regarding `CCC(C)C1NCCOc2ccccc2C=CCNC(=O)C(Cc2ccccc2OC)NC(=O)C(C(C)O)N(C)C1=O` (stereo not drawn) [Compound 1795], the IC50 in assay [1] was in the range of 100 to 500 nM; in assay [2] (setting [4]) it was 1 to 10 nM.

(Values after patent publication US20110105389A1 (priority 2009, published 2011).)
